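1) Cells in 96-well plates. 2) Compound, 48 h, 5 concentrations. 3) Linear interpolation between surrounding doses. 4) Unreached endpoint = highest concentration. GI50: concentration for 50% inhibition of growth. TGI is the concentration that stops growth completely.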
Legend:
Assay in all cases: DTP human tumour cell line panel, 48 h
UACC-257 melanoma = test system: UACC-257 melanoma
RPMI-8226 leukemia = test system: RPMI-8226 leukemia
NCI/ADR-RES ovarian = test system: NCI/ADR-RES ovarian
LOX IMVI melanoma = test system: LOX IMVI melanoma
BT-549 breast = test system: BT-549 breast
A549 NSCLC = test system: A549 NSCLC
DU-145 prostate = test system: DU-145 prostate
SK-OV-3 ovarian = test system: SK-OV-3 ovarian
M14 melanoma = test system: M14 melanoma
COLO 205 colon = test system: COLO 205 colon
CAKI-1 renal = test system: CAKI-1 renal
UO-31 renal = test system: UO-31 renal
SF-268 CNS = test system: SF-268 CNS
T-47D breast = test system: T-47D breast
HL-60(TB) leukemia = test system: HL-60(TB) leukemia
IGROV1 ovarian = test system: IGROV1 ovarian
SK-MEL-2 melanoma = test system: SK-MEL-2 melanoma
SW-620 colon = test system: SW-620 colon
SK-MEL-28 melanoma = test system: SK-MEL-28 melanoma
SNB-75 CNS = test system: SNB-75 CNS
RXF 393 renal = test system: RXF 393 renal
NCI-H23 lung = test system: NCI-H23 lung
KM12 colon = test system: KM12 colon
SF-295 CNS = test system: SF-295 CNS
MALME-3M melanoma = test system: MALME-3M melanoma
HCT-116 colon = test system: HCT-116 colon
UACC-62 melanoma = test system: UACC-62 melanoma
OVCAR-8 ovarian = test system: OVCAR-8 ovarian
K-562 leukemia = test system: K-562 leukemia
EKVX NSCLC = test system: EKVX NSCLC
CCRF-CEM leukemia = test system: CCRF-CEM leukemia
TK-10 renal = test system: TK-10 renal
MDA-MB-435 = test system: MDA-MB-435
ACHN renal = test system: ACHN renal
SR leukemia = test system: SR leukemia
HOP-62 NSCLC = test system: HOP-62 NSCLC
U251 CNS = test system: U251 CNS
SNB-19 CNS = test system: SNB-19 CNS
SF-539 CNS = test system: SF-539 CNS
NCI-H522 lung = test system: NCI-H522 lung
NCI-H460 lung = test system: NCI-H460 lung
HCT-15 colon = test system: HCT-15 colon
786-0 renal = test system: 786-0 renal
PC-3 prostate = test system: PC-3 prostate
MDA-MB-231 breast = test system: MDA-MB-231 breast
MCF7 breast = test system: MCF7 breast
SN12C renal = test system: SN12C renal
OVCAR-3 ovarian = test system: OVCAR-3 ovarian
HS 578T breast = test system: HS 578T breast
HCC-2998 colon = test system: HCC-2998 colon
HOP-92 NSCLC = test system: HOP-92 NSCLC
MOLT-4 leukemia = test system: MOLT-4 leukemia
SK-MEL-5 melanoma = test system: SK-MEL-5 melanoma
A498 renal = test system: A498 renal
OVCAR-5 ovarian = test system: OVCAR-5 ovarian
NCI-H226 lung = test system: NCI-H226 lung
OVCAR-4 ovarian = test system: OVCAR-4 ovarian
HT29 colon = test system: HT29 colon

Compound: CCN(CC)c1ccc(/C=N/NC(=O)c2ccccc2Nc2ccnc(C(F)(F)F)c2)c(O)c1
- GI50 (UACC-257 melanoma): 303 nM
- TGI (UACC-257 melanoma): 1720 nM
- GI50 (RPMI-8226 leukemia): 41.7 nM
- TGI (RPMI-8226 leukemia): 601 nM
- GI50 (NCI/ADR-RES ovarian): 273 nM
- TGI (NCI/ADR-RES ovarian): 14000 nM
- GI50 (LOX IMVI melanoma): 83.7 nM
- GI50 (BT-549 breast): 529 nM
- TGI (BT-549 breast): > 100000 nM
- GI50 (A549 NSCLC): 235 nM
- TGI (A549 NSCLC): > 100000 nM
- GI50 (DU-145 prostate): 134 nM
- TGI (DU-145 prostate): > 100000 nM
- GI50 (SK-OV-3 ovarian): 169 nM
- TGI (SK-OV-3 ovarian): > 100000 nM
- GI50 (M14 melanoma): 175 nM
- TGI (M14 melanoma): 1190 nM
- GI50 (COLO 205 colon): 212 nM
- TGI (COLO 205 colon): > 100000 nM
- GI50 (CAKI-1 renal): 57.7 nM
- TGI (CAKI-1 renal): 387 nM
- GI50 (UO-31 renal): 112 nM
- TGI (UO-31 renal): 5760 nM
- GI50 (SF-268 CNS): 94.2 nM
- TGI (SF-268 CNS): > 100000 nM
- GI50 (T-47D breast): 471 nM
- TGI (T-47D breast): > 100000 nM
- GI50 (HL-60(TB) leukemia): 162 nM
- TGI (HL-60(TB) leukemia): 518 nM
- GI50 (IGROV1 ovarian): 74.7 nM
- TGI (IGROV1 ovarian): 71400 nM
- GI50 (SK-MEL-2 melanoma): 1290 nM
- TGI (SK-MEL-2 melanoma): 97900 nM
- GI50 (SW-620 colon): 407 nM
- TGI (SW-620 colon): > 100000 nM
- GI50 (SK-MEL-28 melanoma): 243 nM
- TGI (SK-MEL-28 melanoma): > 100000 nM
- GI50 (SNB-75 CNS): 410 nM
- TGI (SNB-75 CNS): > 100000 nM
- GI50 (RXF 393 renal): 226 nM
- TGI (RXF 393 renal): > 24600 nM
- GI50 (NCI-H23 lung): 528 nM
- TGI (NCI-H23 lung): > 100000 nM
- GI50 (KM12 colon): 268 nM
- TGI (KM12 colon): > 100000 nM
- GI50 (SF-295 CNS): 184 nM
- TGI (SF-295 CNS): 6270 nM
- GI50 (MALME-3M melanoma): 331 nM
- TGI (MALME-3M melanoma): 5170 nM
- GI50 (HCT-116 colon): 89.5 nM
- TGI (HCT-116 colon): > 100000 nM
- GI50 (UACC-62 melanoma): 206 nM
- TGI (UACC-62 melanoma): 852 nM
- GI50 (OVCAR-8 ovarian): 220 nM
- TGI (OVCAR-8 ovarian): > 100000 nM
- GI50 (K-562 leukemia): 384 nM
- TGI (K-562 leukemia): > 100000 nM
- GI50 (EKVX NSCLC): 101 nM
- TGI (EKVX NSCLC): 4350 nM
- GI50 (CCRF-CEM leukemia): 55 nM
- TGI (CCRF-CEM leukemia): 1350 nM
- GI50 (TK-10 renal): 365 nM
- TGI (TK-10 renal): > 67400 nM
- GI50 (MDA-MB-435): 428 nM
- TGI (MDA-MB-435): > 100000 nM
- GI50 (ACHN renal): 83.4 nM
- TGI (ACHN renal): > 24600 nM
- GI50 (SR leukemia): 72.1 nM
- TGI (SR leukemia): 728 nM
- GI50 (HOP-62 NSCLC): 121 nM
- TGI (HOP-62 NSCLC): 5350 nM
- GI50 (U251 CNS): 103 nM
- TGI (U251 CNS): > 44700 nM
- GI50 (SNB-19 CNS): 363 nM
- TGI (SNB-19 CNS): > 100000 nM
- GI50 (SF-539 CNS): 248 nM
- GI50 (NCI-H522 lung): 287 nM
- TGI (NCI-H522 lung): 3550 nM
- GI50 (NCI-H460 lung): 68.1 nM
- TGI (NCI-H460 lung): > 23400 nM
- GI50 (HCT-15 colon): 45.7 nM
- TGI (HCT-15 colon): > 100000 nM
- GI50 (786-0 renal): 183 nM
- TGI (786-0 renal): 984 nM
- GI50 (PC-3 prostate): 997 nM
- TGI (PC-3 prostate): > 100000 nM
- GI50 (MDA-MB-231 breast): 261 nM
- TGI (MDA-MB-231 breast): > 100000 nM
- GI50 (MCF7 breast): 248 nM
- TGI (MCF7 breast): > 100000 nM
- GI50 (SN12C renal): 278 nM
- TGI (SN12C renal): > 100000 nM
- GI50 (OVCAR-3 ovarian): 84.5 nM
- TGI (OVCAR-3 ovarian): > 100000 nM
- GI50 (HS 578T breast): 1110 nM
- TGI (HS 578T breast): > 51600 nM
- GI50 (HCC-2998 colon): 192 nM
- TGI (HCC-2998 colon): > 100000 nM
- GI50 (HOP-92 NSCLC): 428 nM
- TGI (HOP-92 NSCLC): > 100000 nM
- GI50 (MOLT-4 leukemia): 102 nM
- TGI (MOLT-4 leukemia): 4200 nM
- GI50 (SK-MEL-5 melanoma): 143 nM
- TGI (SK-MEL-5 melanoma): 723 nM
- GI50 (A498 renal): 354 nM
- TGI (A498 renal): > 32900 nM
- GI50 (OVCAR-5 ovarian): 377 nM
- TGI (OVCAR-5 ovarian): > 100000 nM
- GI50 (NCI-H226 lung): 235 nM
- TGI (NCI-H226 lung): 2370 nM
- GI50 (OVCAR-4 ovarian): 85.6 nM
- TGI (OVCAR-4 ovarian): > 100000 nM
- GI50 (HT29 colon): 362 nM
- TGI (HT29 colon): > 100000 nM

— PubChem BioAssay (NCI)
